{"source": "ChEMBL document CHEMBL5465560", "about": "“Selectivity Literature for EUbOPEN Chemogenomic Library” (2024)", "key": {"[1]": {"target": "Phosphatidylinositol 4-phosphate 5-kinase type-1 gamma (Homo sapiens) (UniProt O60331)", "sequence (O60331 whole entry)": "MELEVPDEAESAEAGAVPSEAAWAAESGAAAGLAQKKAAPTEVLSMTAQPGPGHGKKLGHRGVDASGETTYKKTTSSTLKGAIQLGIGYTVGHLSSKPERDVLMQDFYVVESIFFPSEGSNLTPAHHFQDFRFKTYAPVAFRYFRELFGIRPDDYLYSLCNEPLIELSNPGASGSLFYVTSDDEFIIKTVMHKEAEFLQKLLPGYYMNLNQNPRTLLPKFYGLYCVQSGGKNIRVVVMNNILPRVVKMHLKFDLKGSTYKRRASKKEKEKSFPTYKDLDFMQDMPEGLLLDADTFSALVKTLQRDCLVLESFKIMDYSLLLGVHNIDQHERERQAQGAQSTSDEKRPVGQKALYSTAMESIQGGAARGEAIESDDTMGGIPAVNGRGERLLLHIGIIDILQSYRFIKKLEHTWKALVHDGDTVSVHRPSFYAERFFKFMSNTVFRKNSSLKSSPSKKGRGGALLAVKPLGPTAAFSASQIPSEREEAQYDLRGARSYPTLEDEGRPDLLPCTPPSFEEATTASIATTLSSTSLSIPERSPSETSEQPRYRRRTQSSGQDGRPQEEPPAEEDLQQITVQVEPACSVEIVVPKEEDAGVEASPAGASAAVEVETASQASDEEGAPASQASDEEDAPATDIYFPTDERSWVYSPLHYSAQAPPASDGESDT", "test": "Selectivity interaction (KinomeScan (DiscoverX)) EUB0001079a PIP5K1C", "conditions": "at 1 µM"}, "[2]": {"target": "5'-AMP-activated protein kinase catalytic subunit alpha-1 (Homo sapiens, UniProt Q13131)", "sequence (Q13131 whole entry, looked up)": "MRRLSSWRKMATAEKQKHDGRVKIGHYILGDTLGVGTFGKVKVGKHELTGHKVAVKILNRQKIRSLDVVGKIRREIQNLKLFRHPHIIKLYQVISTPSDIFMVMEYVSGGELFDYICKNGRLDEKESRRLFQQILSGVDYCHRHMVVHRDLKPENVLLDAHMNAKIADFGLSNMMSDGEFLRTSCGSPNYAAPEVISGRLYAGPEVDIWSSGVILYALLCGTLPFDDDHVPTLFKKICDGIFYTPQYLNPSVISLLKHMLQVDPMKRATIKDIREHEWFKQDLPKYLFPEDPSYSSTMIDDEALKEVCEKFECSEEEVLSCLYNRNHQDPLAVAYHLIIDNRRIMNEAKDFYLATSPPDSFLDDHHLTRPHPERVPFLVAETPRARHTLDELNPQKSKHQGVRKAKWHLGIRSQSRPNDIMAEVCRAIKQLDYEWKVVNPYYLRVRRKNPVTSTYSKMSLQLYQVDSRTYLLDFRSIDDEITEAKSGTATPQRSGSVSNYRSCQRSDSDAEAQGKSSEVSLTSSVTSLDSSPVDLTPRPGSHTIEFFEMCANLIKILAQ", "test": "Selectivity interaction (KinomeScan (DiscoverX)) EUB0001079a PRKAA1", "conditions": "at 1 µM"}, "[3]": {"target": "T1, Activin receptor type-1 (Homo sapiens) (UniProt Q04771)", "T1 sequence (whole entry)": "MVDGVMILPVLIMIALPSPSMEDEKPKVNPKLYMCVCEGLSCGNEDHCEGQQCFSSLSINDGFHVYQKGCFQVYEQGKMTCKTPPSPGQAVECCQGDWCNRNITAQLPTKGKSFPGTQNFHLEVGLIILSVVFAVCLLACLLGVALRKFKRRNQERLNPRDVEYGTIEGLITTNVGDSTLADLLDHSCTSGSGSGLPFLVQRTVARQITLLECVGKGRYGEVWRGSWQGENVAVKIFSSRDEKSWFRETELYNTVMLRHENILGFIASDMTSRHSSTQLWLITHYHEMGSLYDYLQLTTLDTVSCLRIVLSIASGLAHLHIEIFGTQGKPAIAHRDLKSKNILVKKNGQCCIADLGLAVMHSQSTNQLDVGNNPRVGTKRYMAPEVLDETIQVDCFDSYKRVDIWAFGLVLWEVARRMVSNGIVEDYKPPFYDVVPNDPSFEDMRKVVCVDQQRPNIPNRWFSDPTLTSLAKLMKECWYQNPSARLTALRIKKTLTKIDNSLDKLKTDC", "test": "(§1) Selectivity interaction (LanthaScreen Eu Kinase Binding Assay) EUB0001632a ACVR1", "conditions": "at 10 µM"}, "[4]": {"test_system": "Activin receptor type-1 (Homo sapiens), Q04771 [R206H]", "sequence (Q04771 whole entry R206H)": "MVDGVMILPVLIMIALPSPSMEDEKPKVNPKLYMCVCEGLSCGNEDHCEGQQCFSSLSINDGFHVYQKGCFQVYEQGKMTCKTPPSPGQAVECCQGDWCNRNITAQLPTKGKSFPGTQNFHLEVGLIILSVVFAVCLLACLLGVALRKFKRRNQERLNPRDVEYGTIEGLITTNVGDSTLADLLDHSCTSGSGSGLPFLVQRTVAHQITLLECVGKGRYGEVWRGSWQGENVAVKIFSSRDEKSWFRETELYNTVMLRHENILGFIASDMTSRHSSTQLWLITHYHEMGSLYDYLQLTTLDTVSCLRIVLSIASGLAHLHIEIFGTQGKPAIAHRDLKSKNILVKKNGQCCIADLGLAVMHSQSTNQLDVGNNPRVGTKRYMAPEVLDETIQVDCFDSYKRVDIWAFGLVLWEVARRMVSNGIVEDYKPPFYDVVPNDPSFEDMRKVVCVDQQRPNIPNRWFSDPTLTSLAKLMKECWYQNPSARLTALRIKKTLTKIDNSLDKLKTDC", "test": "as §1", "conditions": "at 10 µM"}, "[5]": {"target": "T2, NUAK family SNF1-like kinase 2 (Homo sapiens) (UniProt Q9H093)", "T2 sequence (whole entry)": "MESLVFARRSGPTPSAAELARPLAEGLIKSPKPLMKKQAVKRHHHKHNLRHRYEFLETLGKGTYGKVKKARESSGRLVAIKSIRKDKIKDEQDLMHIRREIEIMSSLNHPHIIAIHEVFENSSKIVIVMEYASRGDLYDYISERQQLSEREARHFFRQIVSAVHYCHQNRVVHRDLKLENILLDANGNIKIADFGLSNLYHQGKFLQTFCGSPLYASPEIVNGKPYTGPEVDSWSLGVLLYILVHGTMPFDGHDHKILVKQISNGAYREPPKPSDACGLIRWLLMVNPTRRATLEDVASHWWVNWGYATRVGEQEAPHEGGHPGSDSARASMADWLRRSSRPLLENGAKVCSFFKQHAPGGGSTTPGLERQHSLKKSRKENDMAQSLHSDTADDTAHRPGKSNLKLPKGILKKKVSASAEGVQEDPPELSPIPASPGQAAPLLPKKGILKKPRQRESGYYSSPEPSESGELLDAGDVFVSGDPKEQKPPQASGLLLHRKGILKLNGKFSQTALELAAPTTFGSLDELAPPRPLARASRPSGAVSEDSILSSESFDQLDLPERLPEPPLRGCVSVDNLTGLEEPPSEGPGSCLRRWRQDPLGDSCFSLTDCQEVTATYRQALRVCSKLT", "test": "Selectivity interaction (KinomeScan (DiscoverX)) EUB0000666a NUAK2", "conditions": "at 10 µM"}, "[6]": {"target": "Angiopoietin-1 receptor (Homo sapiens) (UniProt Q02763)", "sequence (Q02763 whole entry)": "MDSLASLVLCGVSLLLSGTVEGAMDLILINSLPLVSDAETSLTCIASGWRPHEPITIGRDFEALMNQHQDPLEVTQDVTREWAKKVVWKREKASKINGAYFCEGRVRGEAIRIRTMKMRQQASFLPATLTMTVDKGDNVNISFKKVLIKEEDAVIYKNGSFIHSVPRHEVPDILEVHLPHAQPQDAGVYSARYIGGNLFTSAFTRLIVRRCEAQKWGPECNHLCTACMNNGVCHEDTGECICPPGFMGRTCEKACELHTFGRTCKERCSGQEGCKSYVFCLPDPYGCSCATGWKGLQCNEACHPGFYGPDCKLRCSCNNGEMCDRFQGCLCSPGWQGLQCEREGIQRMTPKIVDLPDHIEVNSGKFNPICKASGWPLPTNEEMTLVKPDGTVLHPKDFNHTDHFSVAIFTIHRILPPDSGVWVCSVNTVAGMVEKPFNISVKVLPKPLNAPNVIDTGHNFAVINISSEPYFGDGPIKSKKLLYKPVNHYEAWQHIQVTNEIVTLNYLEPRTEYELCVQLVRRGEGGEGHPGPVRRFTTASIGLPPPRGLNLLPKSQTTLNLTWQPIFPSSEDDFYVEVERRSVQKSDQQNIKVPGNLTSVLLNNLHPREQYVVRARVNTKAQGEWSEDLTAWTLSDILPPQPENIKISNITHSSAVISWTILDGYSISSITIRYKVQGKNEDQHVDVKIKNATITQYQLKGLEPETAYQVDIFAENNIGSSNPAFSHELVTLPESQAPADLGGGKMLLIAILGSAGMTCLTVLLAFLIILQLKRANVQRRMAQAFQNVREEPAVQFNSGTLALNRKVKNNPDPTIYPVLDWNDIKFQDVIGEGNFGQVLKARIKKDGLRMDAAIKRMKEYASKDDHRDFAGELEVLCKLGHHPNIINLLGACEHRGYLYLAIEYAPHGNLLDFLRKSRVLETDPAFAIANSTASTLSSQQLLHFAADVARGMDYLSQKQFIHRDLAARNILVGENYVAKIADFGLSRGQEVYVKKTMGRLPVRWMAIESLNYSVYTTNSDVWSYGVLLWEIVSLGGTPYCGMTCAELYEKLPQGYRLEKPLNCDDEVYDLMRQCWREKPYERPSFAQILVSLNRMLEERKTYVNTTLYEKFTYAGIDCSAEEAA", "test": "Selectivity interaction (KinomeScan (DiscoverX)) EUB0000666a TEK", "conditions": "at 10 µM"}, "[7]": {"target": "T3, Ephrin type-B receptor 3 (Homo sapiens) (UniProt P54753)", "T3 sequence (whole entry)": "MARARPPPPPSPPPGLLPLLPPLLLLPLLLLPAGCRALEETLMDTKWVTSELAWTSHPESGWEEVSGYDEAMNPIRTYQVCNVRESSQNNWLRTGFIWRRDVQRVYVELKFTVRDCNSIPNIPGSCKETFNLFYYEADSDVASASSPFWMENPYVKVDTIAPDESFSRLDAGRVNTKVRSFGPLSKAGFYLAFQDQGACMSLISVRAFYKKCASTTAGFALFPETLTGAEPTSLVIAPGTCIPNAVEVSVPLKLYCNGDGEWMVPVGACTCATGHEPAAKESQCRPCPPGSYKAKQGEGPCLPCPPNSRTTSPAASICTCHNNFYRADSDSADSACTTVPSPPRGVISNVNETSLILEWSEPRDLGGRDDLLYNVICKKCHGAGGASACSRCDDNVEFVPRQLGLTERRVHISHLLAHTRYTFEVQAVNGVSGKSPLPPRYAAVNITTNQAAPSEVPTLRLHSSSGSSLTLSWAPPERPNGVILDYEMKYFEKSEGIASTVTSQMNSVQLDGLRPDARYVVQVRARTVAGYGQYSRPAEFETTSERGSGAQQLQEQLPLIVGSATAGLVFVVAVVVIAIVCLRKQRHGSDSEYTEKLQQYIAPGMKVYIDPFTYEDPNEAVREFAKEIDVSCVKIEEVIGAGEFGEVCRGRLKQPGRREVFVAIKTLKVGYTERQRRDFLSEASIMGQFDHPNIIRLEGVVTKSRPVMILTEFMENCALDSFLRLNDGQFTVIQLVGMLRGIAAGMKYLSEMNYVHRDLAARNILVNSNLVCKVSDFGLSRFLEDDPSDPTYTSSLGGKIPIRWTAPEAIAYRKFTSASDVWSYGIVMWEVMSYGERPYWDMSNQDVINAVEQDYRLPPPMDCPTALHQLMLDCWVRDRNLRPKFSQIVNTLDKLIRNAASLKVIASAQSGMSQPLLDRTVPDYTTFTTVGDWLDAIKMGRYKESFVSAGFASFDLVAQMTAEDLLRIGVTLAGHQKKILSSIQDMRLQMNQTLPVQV", "conditions": "at 10 µM"}, "[8]": {"target": "Serine/threonine-protein kinase 24 (Homo sapiens) (UniProt Q9Y6E0)", "sequence (Q9Y6E0 whole entry, looked up)": "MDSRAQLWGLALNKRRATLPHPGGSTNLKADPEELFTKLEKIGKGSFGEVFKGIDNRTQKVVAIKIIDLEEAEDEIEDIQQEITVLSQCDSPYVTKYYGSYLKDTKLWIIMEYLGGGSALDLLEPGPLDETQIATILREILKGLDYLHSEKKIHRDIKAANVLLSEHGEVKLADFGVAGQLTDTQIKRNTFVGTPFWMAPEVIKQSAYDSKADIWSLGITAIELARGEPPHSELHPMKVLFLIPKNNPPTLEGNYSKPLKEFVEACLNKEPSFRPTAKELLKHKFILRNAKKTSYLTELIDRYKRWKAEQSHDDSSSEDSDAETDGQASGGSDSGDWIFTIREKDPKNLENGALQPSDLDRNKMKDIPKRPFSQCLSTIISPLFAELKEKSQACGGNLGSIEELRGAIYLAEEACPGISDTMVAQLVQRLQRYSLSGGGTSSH", "conditions": "at 10 µM"}, "[9]": {"target": "Substance-P receptor (Homo sapiens) (UniProt P25103)", "sequence (P25103 whole entry)": "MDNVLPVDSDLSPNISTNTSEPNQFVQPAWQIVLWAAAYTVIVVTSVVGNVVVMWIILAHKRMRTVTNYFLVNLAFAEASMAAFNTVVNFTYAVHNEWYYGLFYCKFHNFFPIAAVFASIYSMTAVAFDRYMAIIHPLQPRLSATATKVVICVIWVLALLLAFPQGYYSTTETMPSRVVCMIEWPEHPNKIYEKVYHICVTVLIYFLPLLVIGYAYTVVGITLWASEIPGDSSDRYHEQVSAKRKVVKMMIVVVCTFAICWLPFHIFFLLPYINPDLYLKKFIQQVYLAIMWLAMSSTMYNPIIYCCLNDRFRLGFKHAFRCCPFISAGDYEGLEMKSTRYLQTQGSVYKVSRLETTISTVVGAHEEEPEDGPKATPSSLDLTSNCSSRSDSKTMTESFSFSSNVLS", "test": "Selectivity interaction (Panel of kinases, GPCRs, ion channels and transporters (enzymatic assay)) EUB0000266bCl TACR1"}, "[10]": {"target": "Serine/threonine-protein kinase MARK1 (Homo sapiens) (UniProt Q9P0L2)", "sequence (Q9P0L2 whole entry, looked up)": "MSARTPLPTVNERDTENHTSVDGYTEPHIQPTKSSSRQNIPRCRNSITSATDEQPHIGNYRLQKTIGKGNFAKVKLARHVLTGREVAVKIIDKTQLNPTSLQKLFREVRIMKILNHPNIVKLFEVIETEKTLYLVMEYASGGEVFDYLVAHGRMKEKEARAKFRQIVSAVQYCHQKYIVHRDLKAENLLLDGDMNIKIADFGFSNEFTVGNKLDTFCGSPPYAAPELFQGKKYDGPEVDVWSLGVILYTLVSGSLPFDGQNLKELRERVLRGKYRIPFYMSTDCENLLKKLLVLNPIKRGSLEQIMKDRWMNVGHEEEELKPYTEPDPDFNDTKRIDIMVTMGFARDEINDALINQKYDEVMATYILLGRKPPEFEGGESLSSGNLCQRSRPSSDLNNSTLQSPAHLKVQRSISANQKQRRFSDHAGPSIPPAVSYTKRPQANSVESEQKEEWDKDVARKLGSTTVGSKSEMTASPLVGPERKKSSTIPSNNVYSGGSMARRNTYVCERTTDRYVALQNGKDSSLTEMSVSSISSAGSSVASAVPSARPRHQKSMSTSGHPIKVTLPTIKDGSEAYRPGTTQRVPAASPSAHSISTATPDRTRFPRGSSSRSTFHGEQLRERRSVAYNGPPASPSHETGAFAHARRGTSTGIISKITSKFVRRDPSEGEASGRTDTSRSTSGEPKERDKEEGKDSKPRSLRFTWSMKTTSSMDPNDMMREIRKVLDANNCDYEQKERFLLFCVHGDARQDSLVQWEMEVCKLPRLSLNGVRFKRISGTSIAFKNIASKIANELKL", "test": "Selectivity interaction (KinomeScan (DiscoverX)) EUB0000092b MARK1", "conditions": "at 10 µM"}}}
{"smiles": "Nc1cnc(N2CCc3cc(S(=O)(=O)Nc4c(F)cc(Cl)cc4F)cc(N4CCCC4=O)c32)nc1", "note": "[TP-020n]", "values": [{"measurement": "% of control", "setting": "[1]", "result": 75, "unit": "%"}, {"measurement": "% of control", "setting": "[2]", "result": 100, "unit": "%"}]}
{"smiles": "Cn1cc(-n2cnc3c(NCc4nc5cc(Cl)c(Cl)cc5[nH]4)nc(N4CCOCC4)nc32)cn1", "values": [{"measurement": "% of inhibition", "setting": "[3]", "result": -2.09, "unit": "%"}, {"measurement": "% of inhibition", "setting": "[4]", "result": -125, "unit": "%"}]}
{"smiles": "O=C(NOC[C@H](O)CO)c1ccc(F)c(F)c1Nc1ccc(I)cc1F", "values": [{"measurement": "% of control", "setting": "[5]", "result": 99, "unit": "%"}, {"measurement": "% of control", "setting": "[6]", "result": 100, "unit": "%"}]}
{"smiles": "Cc1cc([C@@H](C)Nc2ccccc2C(=O)O)c2nc(N3CCOCC3)cc(=O)n2c1", "note": "[AZD-6482]", "values": [{"measurement": "% of control", "setting": "[7]", "result": 100, "unit": "%"}, {"measurement": "% of control", "setting": "[8]", "result": 100, "unit": "%"}]}
{"smiles": "CCn1c(-c2nc3cc(C(=O)N4CCCC(N)C4)ccc3n2C)cc2ccccc21", "note": "(stereo not given)", "values": [{"measurement": "pXC50", "setting": "[9]", "result": "< 4.4", "unit": "M"}]}
{"smiles": "CCC(=O)N1CCN(c2ccc(-n3c(=O)ccc4cnc5ccc(-c6cnc7ccccc7c6)cc5c43)cc2C(F)(F)F)CC1", "values": [{"measurement": "% of control", "setting": "[10]", "result": 100, "unit": "%"}]}
